According to US20080317883A1, “METHODS FOR TREATING DEPRESSION” (priority 2006, published 2008):
Read-outs that look alike come from different tables or passages of the source.

Columns and labels:
[1] = system: dominant rats; details: administered to dominant rats, literature; cited from earlier work
[2] = system: submissive rats; details: literature, cited from earlier work
[3] = system: submissive rats; test: Reduction of Submissive Behavior Model (RSBM) of depression, dominant-submissive rat food competition test; assay type: in vivo, Sprague-Dawley rats
Description: (§1) In this study, the effects of COMPOUND #7 on dominant or submissive behavior in pairs of rats competing for food are examined. It has been shown that anti-manic drugs, including anticonvulsants, decrease dominance and antidepressant drugs reduce submissiveness. This model uses dominant behavior as a model of mania and submissive behavior as a model of depression. The dominance and submissiveness is defined in a competition test and measured as the relative success of two food-restricted rats to gain access to a feeder. Rats are randomly paired and placed in an apparatus allowing them to compete for a food reward. The dominant-submissive relationship develops over a 2-week period. The submissive or dominant animals in pairs selected after 2 weeks of training were treated orally […] (b.i.d.) with COMPOUND #7 at 3 or 30 mg/kg for 5 weeks. The partner of the drug-treated animal was treated with vehicle.
(§2) The objective of this study was to determine if COMPOUND #7 active in the Reduction of Submissive Behavior Model (RSBM) of depression and the Reduction of Dominant Behavior Model (RDBM) of mania. Measurements were made at two doses (3 and 30 mg/kg) after oral twice a day (b.i.d.) administration. The effect of the drug in the RSBM was compared to the effect of fluoxetine (10 mg/kg) and vehicle (0.5% methylcellulose). The effect of the drug in the RDBM was compared with the effect of lithium (100 mg/kg) and vehicle (0.5% methylcellulose). The endpoints measured were the development of a significant reduction of submissive or dominant behavior and its time of onset.
The DSR developed by two rats competing for food uses the apparatus in FIG. 1. The methodology and equipment are described in several publications; (See: Malatynska E, Goldenberg R, Shuck L, Haque A, Zamecki P, Crites G, Schindler N, Knapp R J. Reduction of submissive behavior in rats: a test for antidepressant drug activity. Pharmacology 2002; 64:8; Malatynska E, Rapp R, Crites G. Dominant behavior measured in a competition test as a model of mania. In: International Behavioral Neuroscience Society Meeting, ed. IBNSCapri, Italy, 2002, p 26; Carpenter L L, Leon Z, Yasmin S, Price L H. Do obese depressed patients respond to topiramate? A retrospective chart review. J Affect Disord 2002; 69:251; McElroy S L, Zarate C A, Cookson J, Suppes T, Huffman R F, Greene P, Ascher J. A 52-week, open-label continuation study of lamotrigine in the treatment of bipolar depression. J Clin Psychiatry 2004; 65:204; Bonnet U. Moclobemide: therapeutic use and clinical studies. CNS Drug Rev 2003; 9:97; Danysz W, Plaznik A, Kostowski W, Malatynska E, Jarbe T U, Hiltunen A J, Archer T. Comparison of desipramine, amitriptyline, zimeldine and alaproclate in six animal models used to investigate antidepressant drugs. Pharmacol Toxicol 1988; 62:42; Knapp R J, Goldenberg R, Shuck C, Cecil A, Watkins J, Miller C, Crites G, Malatynska E. Antidepressant activity of memory-enhancing drugs in the reduction of submissive behavior model. Eur J Pharmacol 2002; 440:27; Kostowski W, Malatynska E, Plaznik A, Dyr W, Danysz W. Comparative studies on antidepressant action of alprazolam in different animal models. Pol J Pharmacol Pharm 1986; 38, 471 and Malatynska E, De Leon I, Allen D, Yamamura H I. Effects of amitriptyline on GABA-stimulated ^36Cl^− uptake in relation to a behavioral model of depression. Brain Res Bull 1995; 37:53) In the experiments described in this report Sprague-Dawley rats weighing 160 to 180 g were used. […]

[4] = system: dominant rats; test: Reduction of Dominant Behavior Model (RDBM) of mania, dominant-submissive rat food competition test; assay type: in vivo, Sprague-Dawley rats
Description: as §1, §2
The DSR developed by two rats competing for food uses the apparatus in FIG. 1. The methodology and equipment are described in several publications; (See: Malatynska E, Goldenberg R, Shuck L, Haque A, Zamecki P, Crites G, Schindler N, Knapp R J. Reduction of submissive behavior in rats: a test for antidepressant drug activity. Pharmacology 2002; 64:8; Malatynska E, Rapp R, Crites G. Dominant behavior measured in a competition test as a model of mania. In: International Behavioral Neuroscience Society Meeting, ed. IBNSCapri, Italy, 2002, p 26; Carpenter L L, Leon Z, Yasmin S, Price L H. Do obese depressed patients respond to topiramate? A retrospective chart review. J Affect Disord 2002; 69:251; McElroy S L, Zarate C A, Cookson J, Suppes T, Huffman R F, Greene P, Ascher J. A 52-week, open-label continuation study of lamotrigine in the treatment of bipolar depression. J Clin Psychiatry 2004; 65:204; Bonnet U. Moclobemide: therapeutic use and clinical studies. CNS Drug Rev 2003; 9:97; Danysz W, Plaznik A, Kostowski W, Malatynska E, Jarbe T U, Hiltunen A J, Archer T. Comparison of desipramine, amitriptyline, zimeldine and alaproclate in six animal models used to investigate antidepressant drugs. […]

[5] = system: Male CF-1 mice; test: Forced swimming test in mice (behavioral despair); assay type: in vivo; details: 1 h before test; for reduction in immobility: 4-minute test period
Description: Porsolt (1977) proposed a model for screening antidepressants in mice, called the “behavioral despair” test. (See, Porsolt, R D et al. Behavioral despair in mice: A preliminary screening test for antidepressants. Arch Int Pharmacodyn Ther 229; 327-336:1977 and Porsolt, R D et al. Behavioral despair in rats: a new model sensitive to antidepressant treatments, Eur. J. Pharmacol., 47, 379-391, 1978). This test is also called the forced swim test In this test, a mouse is placed in a container of water and swims, apparently trying to escape. The animal then alternates periods of swimming and floating, i.e., remaining immobile. Antidepressants are among those drugs that reduce the periods of immobility. In the present report COMPOUND #7 was tested in the forced swimming procedure in mice to determine whether the compound had any potential antidepressant activity.
Male CF-1 mice (18-22 g) were purchased from Charles River Breeding Laboratories, Kingston, N.Y. Animals were housed in standing wire cages with free access to food and water. Experiments were initiated only after an acclimation period of at least 3 days to the animal room environment which consisted of automatically controlled illumination with a 12-hour light/dark cycle and controlled temperature and relative humidity.
COMPOUND #7 was dissolved in 30% polyethylene glycol 400 in deionized water and administered to animals by oral gavage in a volume of 0.1 ml/10 g body weight.
The method was similar to that described by Porsolt et al. (1977)1 with minor modifications (See, Porsolt R D, Bertin A, Jalfre M. Behavioral despair in mice: A preliminary screening test for antidepressants. Arch Int Pharmacodyn Ther 229; 327-336:1977)
Mice were pre-swum the day before the test for 5 minutes. On the test day, mice were dosed orally with either test compound or vehicle. One hour later each animal was placed in a glass cylinder (1000-ml beaker; height 14 cm, diameter 11.5 cm) containing water up to a height of 9 cm (water temperature at 25° C.). Following a 2-minute pretest, immobility of each mouse was recorded for a 4-minute test period. Immobility was defined as the animal making only those movements to stay afloat, especially combined with lack of movement of its hind legs. Each group consisted of 8 mice.

[6] = system: Male NMRI mice; test: Mouse tail suspension test (TST); assay type: in vivo
Method: The tail suspension test (TST) is an acute test which is predictive of anti-depressant activity of a test compound. (See, Steru, L. et al. Psychopharmacology, 85, 367-370, 1985)
Male NMRI mice (22-26 g; n=12 mice per dose) is given a single dose of vehicle (aqueous solution of 1 equivalent tartaric acid+0.45% NaCl+10% cyclodextrin, i.p.), imipramine (128 mg/kg, p.o. in an aqueous solution of 0.9% NaCl) or COMPOUND #7 (at 1, 3 AND 30 mg/kg, p.o.) 60 min prior to tail suspension. All substances were administered in a volume of […]. In this test, the mice are submitted to an unpleasant and inescapable situation (i.e. hanging by the tail) for 6 min. Once suspended, motor activity diminishes rapidly and the mice become immobile. A compound is considered active as an antidepressant in this model, when there is a reduction in immobility time. Viewpoint video-tracking software is utilized to record immobility time.

[7] = system: Male rats of Wistar (Han) strain; test: Behavioral despair or forced swim test in the rat; assay type: in vivo; details: 4 hours and 60 minutes before the test, 5 minute test
Description: The behavioral despair or forced swim test (FST) in rats as in mice (see Example 2) is an acute test of anti-depressant activity. Antidepressant-like compounds are known to be active in this assay (e.g., tricyclics, MAO inhibitors, SSRIs), although activity can vary with mouse strain differences, as would be known to one of skill in the art. (See, Porsolt, R D et al. Behavioral despair in rats: a new model sensitive to antidepressant treatments, Eur. J. Pharmacol., 47, 379-391, 1978) and also (see; Porsolt, R D et al. Behavioral despair in mice: A preliminary screening test for antidepressants. Arch Int Pharmacodyn Ther 229; 327-336:1977)
The assay procedure is as follows. Male rats of Wistar (Han) strain, 185-245 g body weight supplied by Elevage Janvier, 53940 Le Genest-Saint-Isle, France were used. These animals were administered 1, 3 and 30 mg/kg of COMPOUND #7 p.o. 24 hours, 4 hours and 60 minutes before the test. Active control animals were given imipramine 64 mg/kg under the same conditions. […] Imipramine at 64 mg/kg administered under the same experimental conditions decreased the duration of immobility by 44% as compared to vehicle.

[8] = treatment of the submissive subject for 3 weeks

CCCC(CCC)C(=O)[O-].[Na+] [sodium valproate]
effect on competitive behavior of dominant rats [1]: significantly reduced competitive behavior

CN1C(=O)CN=C(c2ccccc2)c2cc(Cl)ccc21 [diazepam]
effect on submissive behavior ([2]; treatment of submissive rats, anxiolytic): ineffective

NC(=O)N1c2ccccc2C=Cc2ccccc21 [carbamazepine]
effect on competitive behavior of dominant rats [1]: significantly reduced competitive behavior

NC(=O)OC[C@@H](O)c1ccccc1Cl [COMPOUND #7]
effect on submissive rat behavior (time spent on feeder) ([3]; 3 mg/kg b.i.d. p.o. for 5 weeks, submissive rat treated, partner vehicle): did not have any effect
onset of increased competitiveness of submissive rats (treatment time) ([3]; 30 mg/kg b.i.d. p.o.): 1 week
effect on competitiveness of submissive rat (time spent on feeder, dominance level) ([3]; 30 mg/kg b.i.d. p.o. for 5 weeks, vs vehicle-treated submissive rats): significantly increased competitiveness
onset of significant decrease of dominant rat performance (treatment time) ([4]; 3 mg/kg b.i.d. p.o.): 3 weeks
effect on performance of dominant rats (time spent on feeder) ([4]; 3 mg/kg b.i.d. p.o. for 5 weeks, dominant rat treated, partner vehicle): decreased the performance of dominant rats
onset of increased competitiveness of dominant rats (treatment time) ([4]; 30 mg/kg b.i.d. p.o.): 2 weeks
effect on competitiveness of dominant rats ([4]; 30 mg/kg b.i.d. p.o. for 5 weeks, vs vehicle treated dominant rats): significantly increased the competitiveness
reduction in immobility ([5]; 1 mg/kg oral): 25%
reduction in immobility ([5]; 3 mg/kg oral): 28%
reduction in immobility ([5]; 10 mg/kg oral): 43%
reduction in immobility (significance) ([5]; 17.3 mg/kg oral): not significant
reduction in immobility (significance) ([5]; 30 mg/kg oral): not significant
effect on duration of immobility ([6]; 1, 3 and 30 mg/kg p.o. 60 minutes before the test): did not affect the duration of immobility
effect on duration of immobility ([7]; 1, 3 and 30 mg/kg p.o. 24 hours): did not affect the duration of immobility

CN(C)CCCN1c2ccccc2CCc2ccccc21 [imipramine, reference compound]
decrease of duration of immobility as compared with control ([6]; 128 mg/kg p.o. 60 minutes before the test): −69%
decrease of duration of immobility as compared to vehicle ([7]; 64 mg/kg p.o. 24 hours): 44%
effect on submissive behavior [2, 8]: reduced submissive behavior

Clc1cccc(Cl)c1N=C1NCCN1 [clonidine]
effect on competitive behavior of dominant rats [1]: significantly reduced competitive behavior

CC(N)Cc1ccccc1 (stereo not shown) [amphetamine, reference compound]
effect on submissive behavior ([3]; treatment of submissive rats, psychostimulant, unpublished observation): ineffective

CNCCC(Oc1ccc(C(F)(F)F)cc1)c1ccccc1 (stereo not shown) [fluoxetine, reference compound]
onset of significant effect in submissive rats (treatment time) ([3]; 10 mg/kg i.p. once a day, previous experimental set): 3 weeks
effect on submissive behavior [2, 8]: reduced submissive behavior

CNCCCN1c2ccccc2CCc2ccccc21 [desipramine]
effect on submissive behavior [2, 8]: reduced submissive behavior
